# Patent US10124022B2, “Compositions and methods for enhancing the effectiveness of systemic, HIPEC, IP, and related cancer treatments” (ChemoTherapeutics, LLC, priority 2010, dated 2018)
# Where “and” joins values, the source holds several entries; their conditions need not be identical. Equal entries are not always repeated. Where two headings read alike, the source gives them in different places.
# Legend:
# HCT-116 cells [1] = assay: MTS assay, two-hour drug treatment, drugs replaced with fresh medium, measured after one day (Study 7b); details: FIG. 7b
# Method: For each study, two plates of HCT-116 cells were seeded in 96-well cell culture plates (2000 cells per well for three-day studies and 10,000 cells for one-day studies). The next day, drugs prepared in 200 μl of culture medium were added to the wells. […] Each treatment was completed in triplicate. One plate was incubated at 37° C. while the other plate was incubated at 42° C. (hyperthermia) for one hour (two hours for study 7 and 8). After the treatment, 4000 freshly harvested cells (cells which were not subjected to hyperthermia) were added to 3 wells of each plate to assess the effect of hyperthermia (for one-day experiments, 20,000 cells will be added). […] Cell viability was measured using MTS assay (Promega CellTiter 96 Aqueous MTS Assay reagents).
# Tested the short-term cytotoxic effects of combination treatments (±hyperthermia at 42° C. for two hour) with chemotherapeutic reagents (0.2 μM Mitomycin C or 10 μM Cisplatin) and three non-chemotherapeutic reagents (1.25 mM Vitamin C, 20 μM Selenite and 150 μM Quercetin). […] Cytotoxicity was measured with MTS assay immediately after the two-hour drug/hyperthermia treatment. • b. […] Drugs were replaced with fresh medium after the treatment, and the cytotoxic effect was measured after one day. • c. Cells were incubated with drugs for one day before the cytotoxicity was measured.
# HCT-116 cells [2] = assay: MTS cell viability assay, drugs ± one-hour hyperthermia, cytotoxicity measured after three days (Studies 1-6);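 on all read-outs here: Drug-treated HCT-116 cells held one hour at 42 °C (hyperthermia) or 37 °C, then cultured at 37 °C, viability read by MTS in triplicate wells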; details: for % cell survival / GI50 / growth inhibition at the concentrations tested / growth promoting effect / cell survival: three days; for GI50: HCT-116 cells; for effect on the cytotoxicity caused by Selenite: Study 6, FIG. 6c; for cell survival: 200 nM
# Method: For each study, two plates of HCT-116 cells were seeded in 96-well cell culture plates (2000 cells per well for three-day studies and 10,000 cells for one-day studies). The next day, drugs prepared in 200 μl of culture medium were added to the wells. […] Each treatment was completed in triplicate. One plate was incubated at 37° C. while the other plate was incubated at 42° C. (hyperthermia) for one hour (two hours for study 7 and 8). After the treatment, 4000 freshly harvested cells (cells which were not subjected to hyperthermia) were added to 3 wells of each plate to assess the effect of hyperthermia (for one-day experiments, 20,000 cells will be added). Both plates were incubated at 37° C. for the number of days specified in each study. Cell viability was measured using MTS assay (Promega CellTiter 96 Aqueous MTS Assay reagents).
# Cytotoxicity was measured after three days.
# The non-chemotherapeutic agent combinations tested were: Vitamin C/Selenite and Vitamin C/Selenite/Quercetin. Cytotoxicity was measured after three days.
# The non-chemotherapeutic agent combinations tested were: Vitamin E/Selenite/Quercetin and Selenite/Quercetin. Cytotoxicity was measured after three days.
# Tested the cytotoxic effects of combination treatments (±hyperthermia at 42° C. for one hour) with chemotherapeutic reagents (Mitomycin C at 0.2 and 0.8 μM or Cisplatin at 2.5 and 10 μM) and four non-chemotherapeutic reagents (100 nM Vitamin D, 40 μM Vitamin E, 20 μM Selenite and 150 μNA Quercetin). The non-chemotherapeutic agent combinations tested were: Quercetin/Vitamin D/Vitamin E/Selenite, Vitamin E/Selenite, and Vitamin D/Vitamin E/Selenite. Cytotoxicity was measured after three days.
# The non-chemotherapeutic agent combinations tested were: Vitamin C/Selenite, Vitamin C/Quercetin, Selenite/Quercetin and Vitamin C/Selenite/Quercetin. Cytotoxicity was measured after three days.
# [3] = read-out: Growth inhibition (GI50)
# [4] = Study 5, no chemotherapeutic, 100 nM Vitamin D, 40 μM Vitamin E, 20 μM Selenite, 150 μM Quercetin as named, 37° C.
# [5] = Study 5, no chemotherapeutic, 100 nM Vitamin D, 40 μM Vitamin E, 20 μM Selenite, 150 μM Quercetin as named, 42° C. 1 hr
# [6] = Study 4, no chemotherapeutic, 40 μM Vitamin E, 20 μM Selenite, 150 μM Quercetin as named, 37° C.
# [7] = Study 4, no chemotherapeutic, 40 μM Vitamin E, 20 μM Selenite, 150 μM Quercetin as named, 42° C. 1 hr
compound,measurement,setting,value
"N.N.[Cl][Pt][Cl] [Cisplatin, reference compound]","cancer cell killing after 2 hours of treatment, cell survival measured one day later",HCT-116 cells [1],additional killing effect
same,% cell survival,"HCT-116 cells [2]; Study 4, 2.5 μM Cisplatin, alone or with 40 μM Vitamin E, 20 μM Selenite, 150 μM Quercetin as named, 37° C.",74.7%
same,% cell survival,"HCT-116 cells [2]; Study 4, 2.5 μM Cisplatin, alone or with 40 μM Vitamin E, 20 μM Selenite, 150 μM Quercetin as named, 42° C. 1 hr",61.7%
same,% cell survival,"HCT-116 cells [2]; Study 4, 10 μM Cisplatin, alone or with 40 μM Vitamin E, 20 μM Selenite, 150 μM Quercetin as named, 37° C.",37.5%
same,% cell survival,"HCT-116 cells [2]; Study 4, 10 μM Cisplatin, alone or with 40 μM Vitamin E, 20 μM Selenite, 150 μM Quercetin as named, 42° C. 1 hr",37.5%
same,% cell survival,"HCT-116 cells [2]; Study 5, 2.5 μM Cisplatin, alone or with 100 nM Vitamin D, 40 μM Vitamin E, 20 μM Selenite, 150 μM Quercetin as named, 37° C.",86.1%
same,% cell survival,"HCT-116 cells [2]; Study 5, 2.5 μM Cisplatin, alone or with 100 nM Vitamin D, 40 μM Vitamin E, 20 μM Selenite, 150 μM Quercetin as named, 42° C. 1 hr",76.0%
same,% cell survival,"HCT-116 cells [2]; Study 5, 10 μM Cisplatin, alone or with 100 nM Vitamin D, 40 μM Vitamin E, 20 μM Selenite, 150 μM Quercetin as named, 37° C.",52.1%
same,% cell survival,"HCT-116 cells [2]; Study 5, 10 μM Cisplatin, alone or with 100 nM Vitamin D, 40 μM Vitamin E, 20 μM Selenite, 150 μM Quercetin as named, 42° C. 1 hr",41.9%
same,GI50,HCT-116 cells [2]; [3],12 µM
"CO[C@@]12[C@H](COC(N)=O)C3=C(C(=O)C(C)=C(N)C3=O)N1C[C@@H]1N[C@@H]12 [Mitomycin C, reference compound]",% cell survival,"HCT-116 cells [2]; Study 3, 0.2 μM Mitomycin C, alone or with 1.25 mM Vitamin C, 20 μM Selenite as named, 37° C.",35%
same,% cell survival,"HCT-116 cells [2]; Study 3, 0.2 μM Mitomycin C, alone or with 1.25 mM Vitamin C, 20 μM Selenite as named, 42° C. 1 hr",36.9%
same,% cell survival,"HCT-116 cells [2]; Study 3, 0.8 μM Mitomycin C, alone or with 1.25 mM Vitamin C, 20 μM Selenite as named, 37° C.",16.9%
same,% cell survival,"HCT-116 cells [2]; Study 3, 0.8 μM Mitomycin C, alone or with 1.25 mM Vitamin C, 20 μM Selenite as named, 42° C. 1 hr",15.5%
same,% cell survival,"HCT-116 cells [2]; Study 4, 0.2 μM Mitomycin C, alone or with 40 μM Vitamin E, 20 μM Selenite, 150 μM Quercetin as named, 37° C.",33.3%
same,% cell survival,"HCT-116 cells [2]; Study 4, 0.2 μM Mitomycin C, alone or with 40 μM Vitamin E, 20 μM Selenite, 150 μM Quercetin as named, 42° C. 1 hr",36.5%
same,% cell survival,"HCT-116 cells [2]; Study 4, 0.8 μM Mitomycin C, alone or with 40 μM Vitamin E, 20 μM Selenite, 150 μM Quercetin as named, 37° C.",16.4%
same,% cell survival,"HCT-116 cells [2]; Study 4, 0.8 μM Mitomycin C, alone or with 40 μM Vitamin E, 20 μM Selenite, 150 μM Quercetin as named, 42° C. 1 hr",22.1%
same,GI50,HCT-116 cells [2]; [3],1.3 µM
O=c1c(O)c(-c2ccc(O)c(O)c2)oc2cc(O)cc(O)c12 [Quercetin],% cell survival,"HCT-116 cells [2]; Study 2, 20 μM, 37° C.",129%
same,% cell survival,"HCT-116 cells [2]; Study 2, 20 μM, 42° C. 1 hr",118%
same,% cell survival,"HCT-116 cells [2]; Study 2, 100 μM, 37° C.",123%
same,% cell survival,"HCT-116 cells [2]; Study 2, 100 μM, 42° C. 1 hr",111%
same,growth inhibition at the concentrations tested,HCT-116 cells [2]; Study 2,did not show significant growth inhibition
same,growth promoting effect,HCT-116 cells [2]; Study 2,slight growth promoting effect at the lower concentrations tested
same,"cancer cell killing without chemotherapeutic agent, compared to the agents alone","HCT-116 cells [2]; Study 3, FIG. 3b",did not show enhanced killing
same,effect on cytotoxicity of the co-administered treatment,"HCT-116 cells [2]; Study 4, FIG. 4b-4d",reduced the cytotoxicity of Selenite
same,effect on cytotoxicity of the co-administered treatment,"HCT-116 cells [2]; Study 5, FIG. 5b-5e",reduced the cytotoxicity of Selenite/Vit-D/Vit-E
same,% cell survival,HCT-116 cells [2]; [4],98.0%
same,% cell survival,HCT-116 cells [2]; [5],89.5%
same,effect on the cytotoxicity caused by Selenite,HCT-116 cells [2],reduced the cytotoxicity caused by Selenite
O=[Se](O)O [Selenite],effect of hyperthermia treatment on cell growth,"HCT-116 cells [2]; Study 2, 42° C. 1 hr vs 37° C.",No significant effect
same,% cell survival,HCT-116 cells [2]; [6],45%
same,% cell survival,HCT-116 cells [2]; [7],39.7% and 39.8%
same,% cell survival,HCT-116 cells [2]; [4],42.6%
same,% cell survival,HCT-116 cells [2]; [5],32.9%
same,GI50,HCT-116 cells [2]; [3],~30 µM
O=C1O[C@H]([C@@H](O)CO)C(O)=C1O [Vitamin C],GI50,HCT-116 cells [2],~2000 µM
same,% cell survival,"HCT-116 cells [2]; Study 2, 0.08 mM, 37° C.",102%
same,% cell survival,"HCT-116 cells [2]; Study 2, 0.08 mM, 42° C. 1 hr",92.6%
same,% cell survival,"HCT-116 cells [2]; Study 2, 0.31 mM, 37° C.",97.6%
same,% cell survival,"HCT-116 cells [2]; Study 2, 0.31 mM, 42° C. 1 hr",89%
same,effect on the cytotoxicity caused by Selenite,HCT-116 cells [2],did not appear to modulate the cytotoxicity caused by Selenite
Vitamin D,cell survival,"HCT-116 cells [2]; Study 2, 37° C.",122%
same,cell survival,"HCT-116 cells [2]; Study 2, 42° C. 1 hr",110%
same,growth inhibition at the concentrations tested,HCT-116 cells [2]; Study 2,did not show significant growth inhibition
same,growth promoting effect,HCT-116 cells [2]; Study 2,slight growth promoting effect at the higher concentrations tested
Vitamin E,% cell survival,"HCT-116 cells [2]; Study 2, 0.32 μM, 37° C.",111%
same,% cell survival,"HCT-116 cells [2]; Study 2, 0.32 μM, 42° C. 1 hr",95.5%
same,% cell survival,"HCT-116 cells [2]; Study 2, 1.6 μM, 37° C.",116%
same,% cell survival,"HCT-116 cells [2]; Study 2, 1.6 μM, 42° C. 1 hr",102%
same,growth promoting effect,HCT-116 cells [2]; Study 2,slight growth promoting effect at the lower concentrations tested for 37 °C treated group
same,% cell survival,HCT-116 cells [2]; [6],105.7%
same,% cell survival,HCT-116 cells [2]; [7],81.6%
same,% cell survival,HCT-116 cells [2]; [4],112.2%
same,% cell survival,HCT-116 cells [2]; [5],95.5%
same,GI50,HCT-116 cells [2]; [3],~90 µM
